Source: US20220112538A1, “SPECTROSCOPIC METHODS, REAGENTS AND SYSTEMS TO DETECT, IDENTIFY, AND CHARACTERIZE BACTERIA FOR ANTIMICROBIAL SUSCEPTIBLITY” (priority 2020, published 2022)
Values after ≈ are worked out from the molar mass of the structure shown. Read-outs that look alike come from different tables or passages of the source.

How the values were obtained:
Type in all cases: cell-based
[1] = system: wild type strain of S. aureus; test: MIC from Rayleigh scattering growth in Cation Adjusted Mueller Hinton Broth, corrected for pathogen concentration; settings: for MIC: Staphylococcus aureus
Experimental: FIG. 21A: Variation of Rayleigh scattering with time for 7 samples containing Cation Adjusted Mueller Hinton Broth (CAMHB), an unknown concentration of a test bacteria (which was identified as S. aureus due to pigment production), and loaded onto 96 well plates at 7 concentrations of the candidate antibiotic Vancomycin, with concentrations starting at 1.25 μg/mL (for Cell 7) and decreasing in steps of 2× for each well down to Cell 1. The data is collected for 8 hours. FIG. 21B: Variation of the fitting parameter a, in the fit equation y=a/[1+exp(−(t−b)/c)], with a non-linear best fit routine is applied to fit this equation to the data depicted on the left. The fitting parameter is plotted against cell#. From this variation, it is estimated that Rayleigh growth becomes negligible at an extrapolated cell # of 4.8, which corresponds to a Vancomycin concentration of 0.19 μg/mL.
As we observe experimentally, the antimicrobial susceptibility metric MIC is a function of pathogen concentration, as depicted in FIG. 19. Thus, estimates for MIC obtained from a test sample that is at a pathogen concentration lower than the concentration of 2×10^8 CFU/mL (or 0.5 McFarland) specified in the CLSI M100 standard will need to be corrected for this variation to maximize concordance between a rapid test MIC and the CLSI standard. Empirically, we find that the slope of the traces depicted in FIG. 19 scales with the absolute magnitude of the estimated MIC, as depicted in FIG. 20. Thus, an algorithm to correct the MIC for pathogen concentration is to use the empirical observed scaling relationship depicted in FIG. 20, along with the pathogen concentration estimated from the methods described in FIG. 18. […] Separately, the time to detection is measured as 161 minutes, and this returns an S. aureus concentration of 7.5×10^6 CFU/mL.
We illustrate this process with one example of a wild type strain of S. aureus tested against Vancomycin in Cation Adjusted Mueller Hinton Broth (CAMHB Himedia labs M1657). With CAMHB, the viability of the bacteria is estimated by plotting the Rayleigh scattering factor versus time, and fitting this to an exponential growth function a/[1+exp(−(t−b)/c)], as illustrated in FIG. 21. The growth factor a is then plotted against antibiotic concentration, and from this profile, the concentration at which a approaches zero is estimated as the nominal MIC at the pathogen concentration. Separately, the pathogen concentration is estimated and the MIC is corrected for the pathogen concentration. […] The CLSI M100 breakpoints for Staphylococcus against Vancomycin are >16 μg/mL for resistant and <2 μg/mL for susceptible. Accordingly, this strain of S. aureus is reported as being susceptible to vancomycin, […]

[2] = system: S. aureus (clinical sample); test: MIC from time required for S. aureus pigment detection versus antibiotic concentration
Experimental: FIG. 15: Variation of the time required for pigment detection versus antibiotic concentration for tetracycline plotted against antibiotic concentration. The pathogen concentration is estimated at 8.8×10^6 CFU/mL. For antibiotic concentrations of 2 μg/mL, the time to detection is increased by a factor of >2 compared to the baseline value of about 150 minutes for this pathogen concentration. We set this 2× increase as the criterion for MIC˜other criterion can also be used, but will require a different set of corrections for pathogen concentration. With the MIC at the test pathogen concentration, we apply the correction described above, and find that the rapid test MIC correlates with the CLSI M100 MIC, as depicted in FIG. 23.
The second factor that complicates a rapid test for MIC is the presence of multiple pathogens in a polymicrobial sample. For example, a polymicrobial sample that is dominated by Enterococcus but in which the S. aureus is the pathogen of concern, the MIC estimated by examining the growth of Rayleigh scattering can be erroneous because of an incorrect correction for pathogen concentration, and because the Rayleigh scattering is dominated by Enterococcus growth. This issue can be mitigated by one of two ways: (a) by flagging all polymicrobial samples & (b) by focusing the response on a signal associated with the pathogen of interest. For example, using the methods described in Example 5, we detect the S. aureus specific pigments, and characterize the time required for the detection of these pigments as a function of antibiotic concentration. This is illustrated in FIG. 15 for a clinical sample containing […], and the antibiotic tetracycline. From this variation, the MIC is estimated as the minimum antibiotic concentration required to increase the time to detection metric by 2× compared to the time to detection metric observed for the media without any antibiotic (which was 150 minutes in this example). And so, the MIC in this example is log (concentration)=0.3, or a concentration of 2 μg/mL. The concentration of S. aureus estimated from the detection time of 150 minutes (and the methods described in Example 8) is 8.8×10^6 CFU/mL. […] This clinical sample also contained Enterococcus (which was evident after isolating individual colonies on a blood Agar plate), but the method described here focuses the MIC metric on the response of S. aureus.

[3] = system: E. coli 25922; test: Minimum inhibitory concentration from phenol red 560 nm absorbance peak height; settings: 1000 CFU/mL E. coli; extrapolated from a linear fit to phenol red peak height
Text: This example characterizes the response of E. coli 25922 to Gentamicin. Top: The curves illustrate the response of a test solution that includes 1000 CFU/mL E. coli, the Phenol-Red based reagent described in herein, and Gentamicin GM present at concentrations that are depicted in the legend. The Y axis depicts the height of the phenol red peak at 560 nm, normalized to the starting value.
This example characterizes the response of E. coli 25922 to Gentamicin. Top: The curves illustrate the response of a test solution that includes 1000 CFU/mL E. coli, the Phenol-Red based reagent described herein, and Gentamicin GM present at concentrations that are depicted in the legend. The Y axis depicts the height of the phenol red peak at 560 nm, normalized to the starting value. Bottom: The normalized peak height at 300 minutes, plotted as a function of GM concentration.
Antimicrobial susceptibility response was characterized. The metabolic activity of the causative pathogen can be suppressed by an effective antimicrobial. Thus, when a candidate antibiotic, present at a test concentration, is combined with the teachings described herein, then we can deduce the effect of that antibiotic on the microorganism. If we combine a series of antibiotic concentrations, then we can deduce the minimum inhibitory concentration. […]

CN[C@H](CC(C)C)C(=O)N[C@H]1C(=O)N[C@@H](CC(N)=O)C(=O)N[C@H]2C(=O)N[C@H]3C(=O)N[C@H](C(=O)N[C@H](C(=O)O)c4cc(O)cc(O)c4-c4cc3ccc4O)[C@H](O)c3ccc(c(Cl)c3)Oc3cc2cc(c3O[C@@H]2O[C@H](CO)[C@@H](O)[C@H](O)[C@H]2O[C@H]2C[C@](C)(N)[C@H](O)[C@H](C)O2)Oc2ccc(cc2Cl)[C@H]1O [Vancomycin]
MIC estimated at the test pathogen concentration (concentration at which Rayleigh growth becomes negligible) ([1]; CAMHB, 8 hours, extrapolated cell # 4.8, S. aureus 7.5×10^6 CFU/mL): 0.19 µg/mL (≈ 0.131 µM)
MIC ([1]; 8 h, read-out: MIC estimated at the test pathogen concentration (concentration at which Rayleigh growth becomes negligible), CAMHB, 8 hours, extrapolated cell # 4.8, S. aureus 7.5×10^6 CFU/mL): 0.192 µg/mL (≈ 0.132 µM)
MIC ([1]; read-out: CLSI M100 MIC at 0.5 McFarland, estimated by correction for pathogen concentration, corrected from 7.5×10^6 CFU/mL to 0.5 McFarland): 0.867 µg/mL (≈ 0.598 µM)
resistant or susceptible status by comparison with CLSI M100 breakpoints ([1]; breakpoints >16 μg/mL resistant, <2 μg/mL susceptible): susceptible

CN(C)[C@@H]1C(O)=C(C(N)=O)C(=O)[C@@]2(O)C(O)=C3C(=O)c4c(O)cccc4[C@@](C)(O)[C@H]3C[C@@H]12 [tetracycline]
MIC (minimum concentration that increases time to detection by 2×) at the test pathogen concentration ([2]; S. aureus 8.8×10^6 CFU/mL): 2 µg/mL (≈ 4.5 µM)
MIC as log (concentration) ([2]; S. aureus 8.8×10^6 CFU/mL): 0.3
MIC ([2]; Staphylococcus aureus, corrected from 8.8×10^6 CFU/mL, read-out: MIC at 0.5 McFarland, estimated by correction for pathogen concentration): 2.51 µg/mL (≈ 5.65 µM)
increase of time to pigment detection compared to baseline (factor) ([2]; antibiotic 2 μg/mL, baseline about 150 minutes, pathogen 8.8×10^6 CFU/mL): > 2

Gentamicin
GM concentration at which the 560 nm peak height does not decrease from the starting value (minimum inhibitory concentration) [3]: 2.03 µg/mL
